Measurements as given in paper PMC12277872, “Design, Synthesis, In Vitro, and In Silico Studies of 5‐(Diethylamino)‐2‐Formylphenyl Naphthalene‐2‐Sulfonate Based Thiosemicarbazones as Potent Anti‐Alzheimer Agents” (Archiv Der Pharmazie, 2025).

Legend:
[1] = target: T1, AChE from Electrophorus electricus (electric eel) (Electrophorus electricus, UniProt O42275); test: biochemical; conditions: for IC50: AChI substrate, DTNB, 412 nm, Tris/HCl pH 8.0; for Ki: read-out: K i (nM) AChE
T1 construct: purchased Sigma Aldrich C3389
T1 sequence (O42275 24-633): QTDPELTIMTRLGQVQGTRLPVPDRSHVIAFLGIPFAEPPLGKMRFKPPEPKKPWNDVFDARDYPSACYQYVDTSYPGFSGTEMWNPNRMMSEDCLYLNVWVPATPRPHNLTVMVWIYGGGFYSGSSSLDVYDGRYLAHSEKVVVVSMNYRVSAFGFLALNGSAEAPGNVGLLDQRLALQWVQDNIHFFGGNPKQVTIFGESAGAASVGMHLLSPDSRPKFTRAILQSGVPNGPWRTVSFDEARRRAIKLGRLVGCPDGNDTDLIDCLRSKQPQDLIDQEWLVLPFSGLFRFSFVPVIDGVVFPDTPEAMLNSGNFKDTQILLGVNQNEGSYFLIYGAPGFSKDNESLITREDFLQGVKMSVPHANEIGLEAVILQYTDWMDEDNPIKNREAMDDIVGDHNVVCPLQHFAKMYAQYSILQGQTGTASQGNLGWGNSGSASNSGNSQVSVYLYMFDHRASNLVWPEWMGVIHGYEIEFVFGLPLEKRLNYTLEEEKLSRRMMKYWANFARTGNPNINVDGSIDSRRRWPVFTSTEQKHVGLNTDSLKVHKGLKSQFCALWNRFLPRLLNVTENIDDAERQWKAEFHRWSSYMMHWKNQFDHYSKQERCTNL
Procedure: Both […] (AChI) and butyrylcholine iodide (BChI) were used as substrates for the enzymatic hydrolysis reactions, with 5,5′‐dithiobis(2‐nitrobenzoic acid) (DTNB) serving as a common reagent for detecting the activities of AChE and BChE. The assay was conducted: 1 mL of 1.0 M Tris/HCl buffer (pH 8.0) was mixed with 10 μL of the sample solution in deionized water. To this mixture, 50 μL of AChE or BChE enzyme solution was added, and the reaction was incubated at room temperature for 10 min. After incubation, 50 μL of DTNB (0.5 mM) was introduced, followed by the addition of 50 μL of either AChI or BChI (10 mM), initiating the enzymatic reaction. […] This color change is due to the reaction of DTNB with thiocholine released during the hydrolysis of AChI or BChI. For every inhibitor that was utilized, IC50 and K i values were determined. In this study, C7512‐ BChE from equine serum and C3389‐ AChE from Electrophorus electricus (electric eel) were purchased from Sigma Aldrich.

[2] = target: T2, BChE from equine serum (Equus caballus, UniProt P81908); test: biochemical; conditions: for IC50: BChI substrate, DTNB, 412 nm, Tris/HCl pH 8.0; for Ki: read-out: K i (nM) BChE
T2 construct: C7512‐ BChE from equine serum; purchased Sigma Aldrich C7512; host or cells: equine serum
T2 sequence (P81908 whole entry): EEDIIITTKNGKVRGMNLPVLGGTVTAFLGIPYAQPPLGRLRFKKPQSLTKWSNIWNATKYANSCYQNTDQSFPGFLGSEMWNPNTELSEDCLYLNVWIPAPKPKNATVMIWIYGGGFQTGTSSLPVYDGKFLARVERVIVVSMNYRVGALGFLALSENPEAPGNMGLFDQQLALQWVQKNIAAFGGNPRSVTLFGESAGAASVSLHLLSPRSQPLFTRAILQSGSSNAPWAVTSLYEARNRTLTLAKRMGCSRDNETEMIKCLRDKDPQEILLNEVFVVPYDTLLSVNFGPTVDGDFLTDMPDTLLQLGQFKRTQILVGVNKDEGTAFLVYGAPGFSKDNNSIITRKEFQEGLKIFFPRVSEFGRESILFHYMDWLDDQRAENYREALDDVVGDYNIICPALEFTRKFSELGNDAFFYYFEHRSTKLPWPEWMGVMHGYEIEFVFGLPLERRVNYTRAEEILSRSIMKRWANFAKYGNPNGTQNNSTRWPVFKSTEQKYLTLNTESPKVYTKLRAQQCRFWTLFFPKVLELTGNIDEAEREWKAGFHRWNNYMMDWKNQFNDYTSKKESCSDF
Procedure: Both […] (AChI) and butyrylcholine iodide (BChI) were used as substrates for the enzymatic hydrolysis reactions, with 5,5′‐dithiobis(2‐nitrobenzoic acid) (DTNB) serving as a common reagent for detecting the activities of AChE and BChE. The assay was conducted: 1 mL of 1.0 M Tris/HCl buffer (pH 8.0) was mixed with 10 μL of the sample solution in deionized water. To this mixture, 50 μL of AChE or BChE enzyme solution was added, and the reaction was incubated at room temperature for 10 min. After incubation, 50 μL of DTNB (0.5 mM) was introduced, followed by the addition of 50 μL of either AChI or BChI (10 mM), initiating the enzymatic reaction. The hydrolysis of the substrates was monitored spectrophotometrically by measuring the absorbance at 412 nm, corresponding to the formation of the yellow‐colored 5‐thio‐2‐nitrobenzoate anion. This color change is due to the reaction of DTNB with thiocholine released during the hydrolysis of AChI or BChI. For every inhibitor that was utilized, IC50 and K i values were determined. In this study, C7512‐ BChE from equine serum and C3389‐ AChE from Electrophorus electricus (electric eel) were purchased from Sigma Aldrich.

[3] = target: T3, hMAO‐A (Homo sapiens, UniProt P21397); test: In vitro fluorometric MAO-A inhibition assay (tyramine substrate, horseradish peroxidase coupling); format: biochemical
T3 construct: purchased Sigma Aldrich M7316
T3 sequence (P21397 1-527): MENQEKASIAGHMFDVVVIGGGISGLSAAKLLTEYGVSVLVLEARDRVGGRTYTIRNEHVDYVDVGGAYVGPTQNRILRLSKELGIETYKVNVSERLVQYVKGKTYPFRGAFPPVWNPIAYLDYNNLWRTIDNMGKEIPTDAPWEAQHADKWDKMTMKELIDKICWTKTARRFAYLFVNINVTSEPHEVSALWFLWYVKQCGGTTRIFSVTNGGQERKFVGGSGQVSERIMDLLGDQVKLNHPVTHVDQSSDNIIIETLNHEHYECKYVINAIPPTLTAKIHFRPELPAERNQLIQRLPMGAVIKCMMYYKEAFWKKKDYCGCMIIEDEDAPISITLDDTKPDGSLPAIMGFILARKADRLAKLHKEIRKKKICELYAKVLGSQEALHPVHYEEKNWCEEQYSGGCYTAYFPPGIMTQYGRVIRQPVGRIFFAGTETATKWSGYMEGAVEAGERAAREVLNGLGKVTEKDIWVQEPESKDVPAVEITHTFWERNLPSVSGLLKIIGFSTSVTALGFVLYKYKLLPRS
Procedure: (§1) The in vitro fluorometric technique was used to assess each newly generated substance's inhibitory activity against hMAO‐A and hMAO‐B. In a horseradish peroxidase coupling reaction, the oxired reagent (10‐acetyl‐3,7‐dihydroxyphenoxazine) detects H2O2, a result of the oxidative deamination of tyramine, which is utilized as an MAO substrate. The test was carried out in two steps. First, each compound's concentrations of 10^–3 and 10^–4 M were investigated. […] These parameters of this study were made as in previous studies. We purchased these two enzymes from Sigma Aldrich (M7316‐Monoamine Oxidase A human and M7441‐ […]).

[4] = target: T4, hMAO‐B (Homo sapiens, UniProt P27338); test: In vitro fluorometric MAO-B inhibition assay (tyramine substrate, horseradish peroxidase coupling); format: biochemical
T4 construct: purchased Sigma Aldrich M7441
T4 sequence (P27338 1-520): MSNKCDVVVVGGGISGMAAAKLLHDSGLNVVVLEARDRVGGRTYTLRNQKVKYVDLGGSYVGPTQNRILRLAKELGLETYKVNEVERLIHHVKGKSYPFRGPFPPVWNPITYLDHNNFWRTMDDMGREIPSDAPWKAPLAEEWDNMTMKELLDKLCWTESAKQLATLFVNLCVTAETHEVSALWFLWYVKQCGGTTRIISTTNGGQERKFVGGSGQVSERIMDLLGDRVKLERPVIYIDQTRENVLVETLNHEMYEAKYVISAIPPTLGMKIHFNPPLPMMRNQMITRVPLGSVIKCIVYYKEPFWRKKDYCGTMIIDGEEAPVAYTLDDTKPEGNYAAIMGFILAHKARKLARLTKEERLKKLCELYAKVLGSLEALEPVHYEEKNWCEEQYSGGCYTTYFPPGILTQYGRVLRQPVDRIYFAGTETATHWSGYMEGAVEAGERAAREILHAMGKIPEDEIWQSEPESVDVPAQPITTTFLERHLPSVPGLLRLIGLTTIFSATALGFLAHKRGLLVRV
Procedure: as §1

SMILES | IC50 [1] | Ki [1] | IC50 [2] | Ki [2] | IC50 [3] | IC50 [4]
CCN(CC)c1ccc(/C=N/NC(=S)Nc2cccc(OC)c2)c(OS(=O)(=O)c2ccc3ccccc3c2)c1 [Compound 5k, (E)‐5‐(Diethylamino)‐2‐({2‐[(3‐methoxyphenyl)carbamothioyl]hydrazono}methyl)phenyl naphthalene‐2‐sulfonate] | 116 ± 8.42 nM | 95.8 ± 9.54 nM | 253 ± 9.15 nM | 205 ± 10.2 nM | 145 ± 8.03 nM | > 1000 nM
CCN(CC)c1ccc(/C=N/NC(=S)Nc2c(Cl)cccc2Cl)c(OS(=O)(=O)c2ccc3ccccc3c2)c1 [Compound 5u, (E)‐2‐({2‐[(2,6‐Dichlorophenyl)carbamothioyl]hydrazono}methyl)‐5‐(diethylamino)phenyl naphthalene‐2‐sulfonate] | 12.9 ± 1.02 nM | 9.82 ± 1.76 nM | 148 ± 7.35 nM | 112 ± 7.61 nM | 96.2 ± 5.77 nM | 209 ± 5.84 nM
CCN(CC)c1ccc(/C=N/NC(=S)Nc2ccccc2C(F)(F)F)c(OS(=O)(=O)c2ccc3ccccc3c2)c1 [Compound 5h, (E)‐5‐(Diethylamino)‐2‐[(2‐{[2‐(trifluoromethyl)phenyl]carbamothioyl}hydrazineylidene)methyl]phenyl naphthalene‐2‐sulfonate] | 16.8 ± 1.35 nM | 14.6 ± 3.36 nM | 145 ± 8.96 nM | 136 ± 9.17 nM | 100 ± 4.57 nM | 249 ± 9.1 nM
CCN(CC)c1ccc(/C=N/NC(=S)Nc2ccc(F)cc2)c(OS(=O)(=O)c2ccc3ccccc3c2)c1 [Compound 5l, (E)‐5‐(Diethylamino)‐2‐({2‐[(4‐fluorophenyl)carbamothioyl]hydrazono}methyl)phenyl naphthalene‐2‐sulfonate] | 29.5 ± 2.68 nM | 27.4 ± 3.45 nM | 200 ± 6.88 nM | 182 ± 9.05 nM | 112 ± 2.78 nM | 277 ± 6.33 nM
CCN(CC)c1ccc(/C=N/NC(=S)Nc2cccc(Cl)c2Cl)c(OS(=O)(=O)c2ccc3ccccc3c2)c1 [Compound 5a, (E)‐2‐({2‐[(2,3‐Dichlorophenyl)carbamothioyl]hydrazono}methyl)‐5‐(diethylamino)phenyl naphthalene‐2‐sulfonate] | 14.9 ± 1.54 nM | 11.4 ± 3.06 nM | 125 ± 9.13 nM | 101 ± 22.4 nM | 104 ± 4.58 nM | 391 ± 9.04 nM
CCN(CC)c1ccc(/C=N/NC(=S)NC2CCCCC2)c(OS(=O)(=O)c2ccc3ccccc3c2)c1 [Compound 5p, (E)‐2‐{[2‐(Cyclohexylcarbamothioyl)hydrazono]methyl}‐5‐(diethylamino)phenyl naphthalene‐2‐sulfonate] | 54.5 ± 4.57 nM | 47.1 ± 6.35 nM | 254 ± 8.08 nM | 226 ± 12.6 nM | 145 ± 3.57 nM | 327 ± 9.13 nM
CCN(CC)c1ccc(/C=N/NC(=S)Nc2ccccc2)c(OS(=O)(=O)c2ccc3ccccc3c2)c1 [Compound 5c, (E)‐5‐(Diethylamino)‐2‐{[2‐(phenylcarbamothioyl)hydrazono]methyl}phenyl naphthalene‐2‐sulfonate] | 38.4 ± 5.03 nM | 25.4 ± 5.32 nM | 218 ± 8.41 nM | 183 ± 15 nM | 189 ± 6.46 nM | 296 ± 6.01 nM
CCN(CC)c1ccc(/C=N/NC(=S)NCCc2ccccc2)c(OS(=O)(=O)c2ccc3ccccc3c2)c1 [Compound 5t, (E)‐5‐(Diethylamino)‐2‐{[2‐(phenethylcarbamothioyl)hydrazono]methyl}phenyl naphthalene‐2‐sulfonate] | 56.2 ± 4.58 nM | 48.3 ± 7.32 nM | 271 ± 6.9 nM | 227 ± 16.1 nM | 139 ± 6.02 nM | 289 ± 9.11 nM
CCN(CC)c1ccc(C=NNC(=S)NCCCSC)c(OS(=O)(=O)c2ccc3ccccc3c2)c1 [Compound 5g] | 80.4 ± 7.62 nM | 72.4 ± 10.1 nM | 287 ± 8.57 nM | 258 ± 16.1 nM | 188 ± 5.36 nM | 399 ± 7.93 nM
CCN(CC)c1ccc(/C=N/NC(=S)NCC(C)C)c(OS(=O)(=O)c2ccc3ccccc3c2)c1 [Compound 5f, (E)‐5‐(Diethylamino)‐2‐{[2‐(isobutylcarbamothioyl)hydrazono]methyl}phenyl naphthalene‐2‐sulfonate] | 49.5 ± 5.21 nM | 38.8 ± 6.18 nM | 254 ± 6.31 nM | 240 ± 18.6 nM | 134 ± 8.04 nM | 388 ± 5.37 nM
CCN(CC)c1ccc(/C=N/NC(=S)NCc2ccccc2)c(OS(=O)(=O)c2ccc3ccccc3c2)c1 [Compound 5s, (E)‐2‐{[2‐(Benzylcarbamothioyl)hydrazono]methyl}‐5‐(diethylamino)phenyl naphthalene‐2‐sulfonate] | 71.4 ± 8.92 nM | 63.9 ± 7.54 nM | 220 ± 8.53 nM | 195 ± 13.5 nM | 131 ± 5.34 nM | 369 ± 12 nM
CCN(CC)c1ccc(/C=N/NC(=S)Nc2cccc([N+](=O)[O-])c2)c(OS(=O)(=O)c2ccc3ccccc3c2)c1 [Compound 5o, (E)‐5‐(Diethylamino)‐2‐({2‐[(3‐nitrophenyl)carbamothioyl]hydrazono}methyl)phenyl naphthalene‐2‐sulfonate] | 18.9 ± 1.33 nM | 14.2 ± 2.32 nM | 192 ± 6.36 nM | 160 ± 9.01 nM | 123 ± 7.01 nM | 267 ± 6.35 nM
CCN(CC)c1ccc(/C=N/NC(=S)Nc2ccccc2C)c(OS(=O)(=O)c2ccc3ccccc3c2)c1 [Compound 5r, (E)‐5‐(Diethylamino)‐2‐{[2‐(o‐tolylcarbamothioyl)hydrazono]methyl}phenyl naphthalene‐2‐sulfonate] | 27.4 ± 2.42 nM | 21.2 ± 1.05 nM | 294 ± 7.14 nM | 249 ± 15.3 nM | 143 ± 6.78 nM | 495 ± 8.36 nM
CCN(CC)c1ccc(/C=N/NC(=S)Nc2ccc(Cl)cc2)c(OS(=O)(=O)c2ccc3ccccc3c2)c1 [Compound 5i, (E)‐2‐({2‐[(4‐Chlorophenyl)carbamothioyl]hydrazono}methyl)‐5‐(diethylamino)phenyl naphthalene‐2‐sulfonate] | 24.8 ± 2.41 nM | 21 ± 4.12 nM | 200 ± 9.41 nM | 190 ± 13.6 nM | 121 ± 3.15 nM | 285 ± 4.02 nM
CCN(CC)c1ccc(/C=N/NC(=S)Nc2cccc(Cl)c2)c(OS(=O)(=O)c2ccc3ccccc3c2)c1 [Compound 5e, (E)‐2‐({2‐[(3‐chlorophenyl)carbamothioyl]hydrazono}methyl)‐5‐(diethylamino)phenyl naphthalene‐2‐sulfonate] | 31 ± 4.16 nM | 25.4 ± 3.32 nM | 208 ± 7.53 nM | 195 ± 11.5 nM | 117 ± 7.33 nM | > 1000 nM
